Experimental data taken from patent publication US5356904A, “Carbostyril oxytocin receptor antagonists” (Merck & Co., Inc., priority 1992, dated 1994).
Like-named read-outs stand apart in the source and are kept apart here.

How the values were obtained:
[1] = biological target: T1, uterine OT receptors (Rattus norvegicus, UniProt P70536); assay: [3H]oxytocin (OT) radioligand binding, uterine membranes; details: for inhibition at 10 µM: read-out: % Inhibition rat OT
T1 construct: using a crude membrane preparation of uteri; from tissue; host or cells: rat uterus, crude membrane preparation (DES-treated rats)
T1 sequence (P70536 1-388): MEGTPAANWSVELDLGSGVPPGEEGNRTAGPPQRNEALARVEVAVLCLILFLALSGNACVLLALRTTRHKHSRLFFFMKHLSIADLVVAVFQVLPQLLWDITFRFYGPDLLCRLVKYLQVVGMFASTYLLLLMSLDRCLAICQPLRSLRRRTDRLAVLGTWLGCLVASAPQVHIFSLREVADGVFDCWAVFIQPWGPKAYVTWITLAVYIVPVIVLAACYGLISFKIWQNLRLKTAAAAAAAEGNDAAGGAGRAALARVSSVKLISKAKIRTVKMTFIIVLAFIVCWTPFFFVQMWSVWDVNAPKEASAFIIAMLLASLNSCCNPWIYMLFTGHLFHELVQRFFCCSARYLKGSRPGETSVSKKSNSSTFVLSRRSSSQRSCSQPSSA

[2] = biological target: T2, AVP-V1 sites (Rattus norvegicus, UniProt P30560); assay: [3H]vasopressin (AVP) radioligand binding, liver membranes (AVP-V1 sites); details: for inhibition at 3 µM: read-out: % Inhibition rat V1
T2 construct: crude membrane preparation of male rat liver; from tissue; host or cells: male rat liver, crude membrane preparation

[3] = biological target: AVP-V2 sites (Rattus norvegicus, UniProt Q00788); assay: [3H]vasopressin (AVP) radioligand binding, kidney medulla membranes (AVP-V2 sites); details: for inhibition at 3 µM: read-out: % Inhibition rat V2
Chain of AVP-V2 sites (Q00788 whole entry): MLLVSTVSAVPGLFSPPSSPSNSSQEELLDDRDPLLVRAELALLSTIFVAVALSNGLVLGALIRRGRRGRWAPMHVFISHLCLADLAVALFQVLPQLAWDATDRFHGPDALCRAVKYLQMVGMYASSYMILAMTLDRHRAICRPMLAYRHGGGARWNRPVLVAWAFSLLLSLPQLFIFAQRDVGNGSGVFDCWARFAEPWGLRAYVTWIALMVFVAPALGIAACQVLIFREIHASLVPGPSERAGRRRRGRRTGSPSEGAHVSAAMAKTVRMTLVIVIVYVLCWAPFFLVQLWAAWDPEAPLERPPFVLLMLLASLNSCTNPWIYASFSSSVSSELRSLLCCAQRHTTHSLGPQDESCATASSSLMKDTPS

T2 sequence (P30560 whole entry): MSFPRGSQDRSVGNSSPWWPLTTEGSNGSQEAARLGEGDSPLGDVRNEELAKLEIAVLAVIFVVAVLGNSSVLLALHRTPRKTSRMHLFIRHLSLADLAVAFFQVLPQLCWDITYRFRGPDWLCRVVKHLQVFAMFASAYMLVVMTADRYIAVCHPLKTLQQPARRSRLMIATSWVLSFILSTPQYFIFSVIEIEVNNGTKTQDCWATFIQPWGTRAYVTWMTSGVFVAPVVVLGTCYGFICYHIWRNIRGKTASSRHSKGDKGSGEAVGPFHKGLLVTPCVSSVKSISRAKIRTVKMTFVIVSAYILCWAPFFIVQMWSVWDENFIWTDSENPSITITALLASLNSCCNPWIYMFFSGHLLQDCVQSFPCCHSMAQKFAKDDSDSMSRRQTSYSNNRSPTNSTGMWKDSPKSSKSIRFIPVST

## COc1cccc(C(=O)N2CCC(N3C(=O)CCc4ccccc43)CC2)c1 [m-OCH3]
[1]
  IC50: 2700 nM
[2]
  IC50: 2100 nM
[3]
  IC50: > 100000 nM

## O=C(c1ccc(OCCCN2C(=O)c3ccccc3C2=O)cc1)N1CCC(N2C(=O)CCc3ccccc32)CC1 [Example 2]
[1]
  IC50: 1100 nM

## O=C(c1ccc([N+](=O)[O-])cc1Cl)N1CCC(N2C(=O)CCc3ccccc32)CC1 [o-Cl, p-NO2]
[1]
  IC50: 15000 nM
[2]
  inhibition at 3 µM: 34%
[3]
  inhibition at 3 µM: 6%

## O=C(c1cccc2ccccc12)N1CCC(N2C(=O)CCc3ccccc32)CC1 [CO, 1-naphthyl]
[1]; @ 10 uM
  inhibition at 10 µM: 69%
[2]; @ 3 uM
  inhibition at 3 µM: 17%
[3]; @ 3 uM
  inhibition at 3 µM: 5%

## Cc1ccc(C(=O)N2CCC(N3C(=O)CCc4ccccc43)CC2)c(C)c1 [o-CH3, p-CH3]
[1]; @ 10 uM
  inhibition at 10 µM: 79%
[2]; @ 3 uM
  inhibition at 3 µM: 48%
[3]; @ 3 uM
  inhibition at 3 µM: 55%

## COc1ccc(S(=O)(=O)N2CCC(N3C(=O)CCc4ccccc43)CC2)cc1 [SO2, p-C6H4OCH3]
[1]; @ 10 uM
  inhibition at 10 µM: 36%
[2]; @ 3 uM
  inhibition at 3 µM: 15%
[3]; @ 3 uM
  inhibition at 3 µM: 12%

## COc1ccc(C(=O)N2CCC(N3C(=O)CCc4ccccc43)CC2)c(OC)c1 [Example 5]
[1]
  IC50: 560 nM
[2]
  IC50: 39 nM

## O=C(c1ccc2ccccc2c1)N1CCC(N2C(=O)CCc3ccccc32)CC1 [CO, 2-naphthyl]
[1]
  inhibition at 10 µM: 75%
[2]
  inhibition at 3 µM: 75%
[3]
  inhibition at 3 µM: 7%

## O=C(c1ccc2[nH]ccc2c1)N1CCC(N2C(=O)CCc3ccccc32)CC1 [CO, 5-indolyl]
[1]
  IC50: 1700 nM
[2]
  IC50: 240 nM
[3]
  IC50: 56000 nM

## CC(C)(C)c1ccc(C(=O)N2CCC(N3C(=O)CCc4ccccc43)CC2)cc1 [tert-C4H9]
[1]
  inhibition at 10 µM: 77%
[2]
  IC50: 800 nM
[3]
  IC50: ~70000 nM

## CC1(C)[C@@H]2CC[C@@]1(CS(=O)(=O)N1CCC(N3C(=O)CCc4ccccc43)CC1)C(=O)C2 [SO2, (+)-camphor-10-yl]
[1]
  IC50: 1900 nM
[2]
  IC50: 8000 nM
[3]
  IC50: 72000 nM

## COc1ccc(CC(=O)N2CCC(N3C(=O)CCc4ccccc43)CC2)cc1 [CO, p-CH2C6H4OCH3]
[1]
  IC50: 2400 nM
[2]
  IC50: 6000 nM
[3]
  IC50: > 100000 nM

## Nc1ccc(CC(=O)N2CCC(N3C(=O)CCc4ccccc43)CC2)cc1 [CO, p-CH2C6H4NH2]
[1]; @ 1 uM
  inhibition at 1 µM: 19%
[2]; @ 3 uM
  inhibition at 3 µM: 27%
[3]; @ 3 uM
  inhibition at 3 µM: 1%

## COc1ccc(C(=O)N2CCC(N3C(=O)CCc4ccccc43)CC2)c(OC)c1 [o-OCH3, p-OCH3 (drawing 527)]
[3]
  IC50: 28000 nM

## CC(=O)Nc1ccc(CC(=O)N2CCC(N3C(=O)CCc4ccccc43)CC2)cc1 [CO, p-CH2C6H4NHAc]
[1]
  IC50: 2300 nM
[2]
  IC50: 950 nM
[3]
  IC50: > 100000 nM

## O=C(c1ccc(OCCCN2C(=O)c3ccccc3C2=O)cc1)N1CCC(N2C(=O)CCc3ccccc32)CC1 [O(CH2)3NPth (drawing 528)]
[3]
  IC50: ≥ 100000 nM

## O=C(c1ccc(Cl)cc1Cl)N1CCC(N2C(=O)CCc3ccccc32)CC1 [o-Cl, p-Cl]
[1]; @ 10 uM
  inhibition at 10 µM: 7%
[2]; @ 3 uM
  inhibition at 3 µM: 34%
[3]; @ 3 uM
  inhibition at 3 µM: 1%

## O=C(c1ccc(C(F)(F)F)cc1)N1CCC(N2C(=O)CCc3ccccc32)CC1 [CF3]
[1]
  inhibition at 10 µM: 69%
[2]
  IC50: 800 nM
[3]
  IC50: 60000 nM

## O=C(c1ccc(-c2ccccc2)cc1)N1CCC(N2C(=O)CCc3ccccc32)CC1 [C6H5]
[1]
  IC50: 3500 nM
[2]
  inhibition at 3 µM: 65%
[3]
  inhibition at 3 µM: 2%

## COc1ccccc1C(=O)N1CCC(N2C(=O)CCc3ccccc32)CC1 [o-OCH3]
[1]
  IC50: 1100 nM
[2]
  IC50: 380 nM
[3]
  IC50: 66000 nM
